Experiments:
[1] = tested on: C57Black/6J mice subjected to CUS; assay: Forced swimming test (FST) in mice subjected to Chronic Unpredictable Stress (CUS); type: in vivo; conditions: MTHF 3 mg/kg, LAC 30 mg/kg; for effect on immobility time in FST / effects of chronic stress (in words): 3 days of treatment; for Total Immobility Time (sec) + SD: i.p. 3 days of treatment, last 4 minutes of 6 min test, n=8
Procedure: The animal study was performed in a validate experimental model subject to Chronic Unpredictable Stress (CUS), as described in J H Cryan et al. in J. Neubiorev. 2005, 03, 009, for a period of 4 weeks to induce the depressive phenotype CUS. The CUS allows the depressive phenotype responsive to standard antidepressant treatments to be reproduced in vivo in mammals. The animals were divided in five groups and the group which received the combination of MTHF with LAC was compared with the groups which received MTHF and LAC separately. All the groups were compared with the group which received saline solution and the group which not submitted to CUS.
The mice were subjected to CUS for 4 weeks, and the drug treatment started at the 3rd week of CUS and maintained until the end of the 4-week treatment.
To assess the antidepressant effects of the selected product LAC and MTHF the animals were submitted to the Forced swimming test (“FST”) as described in J H Cryan et al. in J. Neubiorev. 2005, 03, 009 and measured the Total Immobility Time expressed in the […] of animals.
Forty, 7-week-old male C57Black/6J, mice were subjected to CUS (“Chronic Unpredictable Mild Stress”), a validate model that allow the depressive phenotype as described in J H Cryan et al. in J. Neubiorev. 2005, 03, 009.
The mice were subjected to CUS for 4 weeks, during which different types of stress were applied to the animals twice-a-day in a random and unpredictable manner: one session during the day lasting 1-3 hours, and one session during the night (lasting 12 hours), with at least 6 hours of interval between the two sessions. […]
To assess the antidepressant behavioural effects of the selected product LAC and MEF the animals were submitted to the Forced swimming test (“FST”) as described in J H Cryan et al. in J. Neubiorev. 2005, 03, 009 and the Total Immobility Time measured in the 5 group of animals.
During the test the mice were placed individually for 6 minutes in transparent plexiglass cylinders (25 cm high and 22 cm in diameter) filled with warm water (28° C.), in sufficient quantity to prevent the mouse from touching the bottom of the cylinder with hind legs. The animal was videotaped, and then the immobility time (expressed in seconds) was measured during the last 4 minutes of the test.

[2] = tested on: BDNF protein; assay: Western blot of BDNF protein in frontal cortex of CUS mice; type: in vivo; conditions: 14 days i.p. treatment, MTHF 3 mg/kg, LAC 30 mg/kg
Procedure: Mice after 4 weeks of CUS and 2 week of pharmacological treatments, as described before, at the end of Week 5 the animals were sacrificed and the level of BDNF protein were measured in Frontal Cortex by western blot.
Drug treatment started at the 3rd week of CUS and it was maintained for 2 weeks, the study ending at Week 5 for the start of the experiment. Behavioural tests were performed 3 days after the beginning of treatments, while post-mortem protein studies in the mouse brain were performed after 14 days of treatment, at the end of Week 5.
Mice were treated as described in Example 19. After 4 weeks of CUS and 2 week of pharmacological treatments (as described in Example 19), at the end of Week 5 the animals were sacrificed and the level of BDNF protein were measured in Hippocampus and Frontal Cortex by western blot. Table 28 reports the protein levels of BDNF, a neuronal trophic factor related to chronic stress and depression, in the Frontal Cortex of mice.
The antibody recognizes the mature form of the 17 KDa BDNF.

| Compound | effect on immobility time in FST / effects of chronic stress (in words) [1] | Total Immobility Time (sec) + SD [1] | Western blot BDNF in frontal cortex, Optical Density bands + SD [2] |
| --- | --- | --- | --- |
| CC(=O)O[C@H](CC(=O)[O-])C[N+](C)(C)C [LAC, Acetyl L-carnitine] | not antagonised | 245.75 + 30.34 sec | 113.29 + 28.95 |
| calcium L-5-methyl-(6S)-tetrahydrofolate [MTHF] | not antagonised | 230 + 14.20 sec | 138.46 + 18.26 |

From patent publication US20230181475A1, “COMPOSITION COMPRISING METHYLFOLATE” (ALFASIGMA S.P.A., priority 2020, published 2023)
